Laboratory results reported in patent US12479845B2, “Imidazopyridine derivative compounds and use of same” (HANMI PHARM. CO., LTD., priority 2019, dated 2025).

test system: NCI-H1417 cells; assay: Cell growth suppression test (CellTiter-Glo Luminescent Cell Viability Assay, 10 days treatment); type: cell-based; conditions: Homo sapiens, 240 h, treated for 10 days
Procedure: Cell growth suppression effects of the synthesized compounds on NCI-H1417 cells were identified. The cells were treated with the synthesized compounds for 10 days. Then, in order to test the cell growth suppression, CellTiter-Glo Luminescent Cell Viability Assay (available from Promega, USA) was used. This test is to measure emission signals proportional to the number of ATPs based on a fixed amount of ATPs, which represents the presence of metabolically active cells, thereby determining the number of viable cells. The results are expressed as a Gl50 value. As for a control, GSK2879552 (available from GlaxoSmithKline USA) was used.

SMILES	GI50
O=C(O)c1ccc(CN2CCC(CN[C@@H]3C[C@H]3c3ccccc3)CC2)cc1 [Control, GSK2879552, reference compound]	311 nM
CN1CCN(c2ccc(-n3c(-c4ccc(C#N)c(F)c4)nc4c(N5CCC[C@@H](N)C5)ccnc43)c(F)c2)CC1 [Example 34]	101 nM
N#Cc1ccc(-c2nc3c(N4CCC[C@@H](N)C4)ccnc3n2-c2cccc(OCCN3CCOCC3)c2)cc1F [Example 37, (R)-4-(7-(3-aminopiperidine-1-yl)-3-(3-(2-morpholinoethoxy)phenyl)-3H-imidazo[4,5-b]pyridine-2-yl)-2-fluorobenzonitrile]	148 nM
N#Cc1ccc(-c2nc3c(N4CCC[C@@H](N)C4)ccnc3n2-c2ccc(C(=O)N3CCOCC3)cc2)cc1F [Example 38, (R)-4-(7-(3-aminopiperidine-1-yl)-3-(4-(morpholino-4-carbonyl)phenyl)-3H-imidazo[4,5-b]pyridine-2-yl)-2-fluorobenzonitrile]	612 nM
Cn1ccc2cc(-n3c(-c4ccc(C#N)c(F)c4)nc4c(N5CCC[C@@H](N)C5)ccnc43)ccc21 [Example 44, (R)-4-(7-(3-aminopiperidine-1-yl)-3-(1-methyl-1H-indole-5-yl)-3H-imidazo(4,5-b)pyridine-2-yl)-2fluorobenzonitrile]	171 nM
Cc1ccc(-n2c(-c3ccc(C#N)c(F)c3)nc3c(N4CCC[C@@H](N)C4)ccnc32)nc1 [Example 45, (R)-4-(7-(3-aminopiperidine-1-yl)-3-(5-methylpyridine-2-yl)-3H-imidazo[4,5-b]pyridine-2-yl)-2-fluorobenzonitrile]	171 nM
N#Cc1ccc(-c2nc3c(N4CCC[C@@H](N)C4)ccnc3n2-c2ccc(C3CCCCC3)cc2)cc1F [Example 46, (R)-4-(7-(3-aminopiperidine-1-yl)-3-(4-cyclohexylphenyl)-3H-imidazo[4,5-b]pyridine-2-yl)-2-fluorobenzonitrile]	303 nM
C=Cc1cccc(-n2c(-c3ccc(C#N)c(F)c3)nc3c(N4CCC[C@@H](N)C4)ccnc32)c1 [Example 47, (R)-4-(7-(3-aminopiperidine-1-yl)-3-(3-vinylphenyl)-3H-imidazo[4,5-b]pyridine-2-yl)-2-fluorobenzonitrile]	360 nM
CCCCCCc1ccc(-n2c(-c3ccc(C#N)c(F)c3)nc3c(N4CCC[C@@H](N)C4)ccnc32)cc1 [Example 51, (R)-4-(7-(3-aminopiperidine-1-yl)-3-(4-hexylphenyl)-3H-imidazo[4,5-b]pyridine-2-yl)-2-fluorobenzonitrile]	242 nM
COc1cc(C#N)ccc1-c1nc2c(N3CCC[C@@H](N)C3)ccnc2n1-c1ccc(N2CC[C@H](OC)C2)cc1F [Example 53, 4-(7-((R)-3-aminopiperidine-1-yl)-3-(2-fluoro-4-((S)-3-methoxypyrrolidine-1-yl)phenyl)-3H-imidazo[4,5-b]pyridine-2-yl)-3-methoxybenzonitrile]	> 1000 nM
N#Cc1ccc(-c2nc3c(N4CCC[C@@H](N)C4)ccnc3n2-c2ccc3scnc3c2)cc1F [Example 58, (R)-4-(7-(3-aminopiperidine-1-yl)-3-(benzo[d]thiazole-5-yl)-3H-imidazo[4,5-b]pyridine-2-yl)-2-fluorobenzonitrile]	64 nM
CO[C@H]1CCN(c2ccc(-n3c(-c4ccc(C#N)c(F)c4)nc4c(N5C6CCC5CC(N)C6)ccnc43)c(F)c2)C1 (stereo partly drawn) [Example 63, 4-(7-(3-amino-8-azabicyclo[3.2.1]octane-8-yl)-3-(2-fluoro-4-((S)-3-methoxypyrrolidine-1-yl)phenyl)-3H-imidazo[4,5-b]pyridine-2-yl)-2-fluorobenzonitrile]	290 nM

These reach a lower GI50. Values come first.

GI50	SMILES
62 nM	N#Cc1ccc(-c2nc3c(N4CCC[C@@H](N)C4)ccnc3n2-c2ccc(OC3CCCC3)cc2F)cc1F [Example 30]
60 nM	CC(C)c1ccc(-n2c(-c3ccc(C#N)c(F)c3)nc3c(N4CCC[C@@H](N)C4)ccnc32)cc1 [Example 43, (R)-4-(7-(3-aminopiperidine-1-yl)-3-(4-isopropylphenyl)-3H-imidazo[4,5-b]pyridine-2-yl)-2-fluorobenzonitrile]
53 nM	CN(C)C1CCN(c2ccc(-n3c(-c4ccc(C#N)c(F)c4)nc4c(N5CCC[C@@H](N)C5)ccnc43)c(F)c2)C1 (stereo partly drawn) [Example 57, 4-(7-((R)-3-aminopiperidine-1-yl)-3-(4-(3-(dimethylamino)pyrrolidine-1-yl)-2-fluorophenyl)-3H-imidazo[4,5-b]pyridine-2-yl)-2-fluorobenzonitrile]
44 nM	N#Cc1ccc(-c2nc3c(N4CCC[C@@H](N)C4)ccnc3n2-c2ccc(N3CCOCC3)cc2F)cc1F [Example 33, (R)-4-(7-(3-aminopiperidine-1-yl)-3-(2-fluoro-4-morpholinophenyl)-3H-imidazo[4,5-b]pyridine-2-yl)-2-fluorobenzonitrile]
42 nM	N#Cc1ccc(-c2nc3c(N4CCC[C@@H](N)C4)ccnc3n2-c2ccc(O)cc2)cc1F [Example 40, (R)-4-(7-(3-aminopiperidine-1-yl)-3-(4-hydroxyphenyl)-3H-imidazo[4,5-b]pyridine-2-yl)-2-fluorobenzonitrile]
30 nM	CO[C@H]1CCN(c2ccc(-n3c(-c4ccc(C#N)cc4F)nc4c(N5CCC[C@@H](N)C5)ccnc43)c(F)c2)C1 [Example 52, 4-(7-((R)-3-aminopiperidine-1-yl)-3-(2-fluoro-4-((S)-3-methoxypyrrolidine-1-yl)phenyl)-3H-imidazo[4,5-b]pyridine-2-yl)-3-fluorobenzonitrile]
27 nM	CCN(CC)c1ccc(-n2c(-c3ccc(C#N)c(F)c3)nc3c(N4CCC[C@@H](N)C4)ccnc32)cc1 [Example 21, (R)-4-(7-(3-aminopiperidine-1-yl)-3-(4-(diethylamino)phenyl)-3H-imidazo[4,5-b]pyridine-2-yl)-2-fluorobenzonitrile]
26 nM	N#Cc1ccc(-c2nc3c(N4CCC[C@@H](N)C4)ccnc3n2-c2ccc3c(c2)CCC3)cc1F [Example 42, (R)-4-(7-(3-aminopiperidine-1-yl)-3-(2,3-dihydro-1H-indene-5-yl)-3H-imidazo[4,5-b]pyridine-2-yl)-2-fluorobenzonitrile]
23 nM	COCCCN(C)c1ccc(-n2c(-c3ccc(C#N)c(F)c3)nc3c(N4CCC[C@@H](N)C4)ccnc32)cc1 [Example 48, (R)-4-(7-(3-aminopiperidine-1-yl)-3-(4-((3-methoxypropyl)(methyl)amino)phenyl)-3H-imidazo[4,5-b]pyridine-2-yl)-2-fluorobenzonitrile]
21 nM	Cn1ccc2cc(-n3c(-c4ccc(C#N)c(F)c4)nc4c(N5CCC[C@@H](N)C5)ccnc43)cnc21 [Example 54, (R)-4-(7-(3-aminopiperidine-1-yl)-3-(1-methyl-1H-pyrrolo[2,3-b]pyridine-5-yl)-3H-imidazo[4,5-b]pyridine-2-yl)-2-fluorobenzonitrile]
14 nM	CO[C@H]1CCCN(c2ccc(-n3c(-c4ccc(C#N)c(F)c4)nc4c(N5CCC[C@@H](N)C5)ccnc43)c(F)c2)C1 [Example 56]
7.9 nM	Cn1ncc2cc(-n3c(-c4ccc(C#N)c(F)c4)nc4c(N5CCC[C@@H](N)C5)ccnc43)ccc21 [Example 55, (R)-4-(7-(3-aminopiperidine-1-yl)-3-(1-methyl-1H-indazole-5-yl)-3H-imidazo[4,5-b]pyridine-2-yl)-2-fluorobenzonitrile]
